# Where “and” joins values, the source holds several entries; their conditions need not be identical. Equal values may be shown once. Read-outs that look alike come from different tables or passages of the source.
# Legend:
# [1] = system: human plasma; format: biochemical
# [2] = target: T1, F IX (Homo sapiens, UniProt P00740); experiment: Coagulation factor assay (Biggs): Factor IX; format: biochemical; details: for inhibition of coagulation factor IX: in vitro; for Factor IX (%): single experiment, control 50; for F IX (%): U.S.P. grade, control 66
# T1 construct: from tissue; host or cells: human plasma
# T1 sequence (P00740 47-461): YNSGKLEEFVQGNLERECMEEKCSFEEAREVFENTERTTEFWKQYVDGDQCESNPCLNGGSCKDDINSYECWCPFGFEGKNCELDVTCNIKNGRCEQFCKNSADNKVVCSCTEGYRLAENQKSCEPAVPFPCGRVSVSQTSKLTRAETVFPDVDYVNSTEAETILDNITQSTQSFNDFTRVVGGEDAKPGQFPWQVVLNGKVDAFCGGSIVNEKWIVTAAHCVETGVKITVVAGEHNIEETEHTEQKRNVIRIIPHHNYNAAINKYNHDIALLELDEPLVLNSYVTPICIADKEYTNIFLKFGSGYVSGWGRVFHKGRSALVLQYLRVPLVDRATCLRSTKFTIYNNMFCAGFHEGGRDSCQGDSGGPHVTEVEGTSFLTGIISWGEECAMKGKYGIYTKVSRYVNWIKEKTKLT
# Protocol: (§1) The effect of U.S.P. grade sodium bisulfite on blood coagulation factors is evaluated by standard procedures (Biggs) and the results are shown in Table III below.
# (§2) References for PT, PTT, and assays of all the coagulation factors can be found in a standard textbook, entitled "Human Blood Coagulation, Haemostasis and Thrombosis", edited by Rosemary Biggs, published by Blackwell Scientific Publications, Oxford, England (2nd edition), pages 670-705, 1976.
# [3] = target: T2, F XII (Homo sapiens, UniProt P00748); experiment: Coagulation factor assay (Biggs): Factor XII; format: biochemical; details: for inhibition of coagulation factor XII: in vitro; for F XII (%): U.S.P. grade, control 86
# T2 construct: from tissue; host or cells: human plasma
# T2 sequence (P00748 20-615): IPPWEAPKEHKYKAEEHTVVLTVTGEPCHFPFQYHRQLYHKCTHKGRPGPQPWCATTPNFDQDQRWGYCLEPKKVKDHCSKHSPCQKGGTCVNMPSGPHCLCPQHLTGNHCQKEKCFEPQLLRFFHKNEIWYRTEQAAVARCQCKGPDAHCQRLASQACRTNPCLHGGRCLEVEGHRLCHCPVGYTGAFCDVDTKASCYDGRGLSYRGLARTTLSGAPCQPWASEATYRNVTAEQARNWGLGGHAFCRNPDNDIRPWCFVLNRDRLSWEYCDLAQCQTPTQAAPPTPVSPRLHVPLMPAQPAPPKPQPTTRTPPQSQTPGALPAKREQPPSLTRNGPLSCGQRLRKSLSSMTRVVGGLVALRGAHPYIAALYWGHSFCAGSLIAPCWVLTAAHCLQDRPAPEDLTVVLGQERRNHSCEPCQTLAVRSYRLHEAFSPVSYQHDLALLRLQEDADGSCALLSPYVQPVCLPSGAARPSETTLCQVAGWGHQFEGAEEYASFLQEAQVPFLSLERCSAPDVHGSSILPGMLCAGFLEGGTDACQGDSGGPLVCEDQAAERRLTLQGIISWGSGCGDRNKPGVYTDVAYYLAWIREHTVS
# Protocol: as §1, §2
# [4] = system: rabbit plasma; experiment: Blood coagulation tests (PT, PTT, coagulation factors) in vitro; format: biochemical; details: for PT and PTT (effect in words): rabbit plasma in vitro, 0.5 mg/ml
# From the text: The alkali metalbisulfites, sodium and potassium, and ammonium bisulfite are found to prolong PT and PTT in a dose-related fashion.
# The Solution I is found to prolong PT and PTT in a dose related fashion. […] The agent is active in inhibiting various coagulation factors, including factors VII, IX, X, XI, and XII.
# [5] = target: T3, F X (Homo sapiens, UniProt P00742); experiment: Coagulation factor assay (Biggs): Factor X; format: biochemical; details: for inhibition of coagulation factor X: in vitro; for F X (%): U.S.P. grade, control 78
# T3 construct: from tissue; host or cells: human plasma
# T3 sequence (P00742 41-488): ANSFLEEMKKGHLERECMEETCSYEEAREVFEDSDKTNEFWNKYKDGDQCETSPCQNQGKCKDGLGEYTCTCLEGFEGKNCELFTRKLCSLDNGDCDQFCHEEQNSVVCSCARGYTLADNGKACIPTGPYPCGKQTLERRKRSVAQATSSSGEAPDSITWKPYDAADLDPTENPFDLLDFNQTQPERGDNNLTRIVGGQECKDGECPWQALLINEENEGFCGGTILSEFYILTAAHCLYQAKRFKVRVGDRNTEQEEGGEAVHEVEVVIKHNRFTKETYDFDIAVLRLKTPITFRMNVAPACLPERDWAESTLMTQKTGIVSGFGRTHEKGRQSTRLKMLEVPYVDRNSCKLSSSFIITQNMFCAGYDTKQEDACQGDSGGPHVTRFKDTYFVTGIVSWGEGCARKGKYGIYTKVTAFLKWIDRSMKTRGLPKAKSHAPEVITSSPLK
# Protocol: as §1, §2
# [6] = target: T4, F XI (Homo sapiens, UniProt P03951); experiment: Coagulation factor assay (Biggs): Factor XI; format: biochemical; details: for inhibition of coagulation factor XI: in vitro; for F XI (%): U.S.P. grade, control 117
# T4 construct: from tissue; host or cells: human plasma
# T4 sequence (P03951 19-625): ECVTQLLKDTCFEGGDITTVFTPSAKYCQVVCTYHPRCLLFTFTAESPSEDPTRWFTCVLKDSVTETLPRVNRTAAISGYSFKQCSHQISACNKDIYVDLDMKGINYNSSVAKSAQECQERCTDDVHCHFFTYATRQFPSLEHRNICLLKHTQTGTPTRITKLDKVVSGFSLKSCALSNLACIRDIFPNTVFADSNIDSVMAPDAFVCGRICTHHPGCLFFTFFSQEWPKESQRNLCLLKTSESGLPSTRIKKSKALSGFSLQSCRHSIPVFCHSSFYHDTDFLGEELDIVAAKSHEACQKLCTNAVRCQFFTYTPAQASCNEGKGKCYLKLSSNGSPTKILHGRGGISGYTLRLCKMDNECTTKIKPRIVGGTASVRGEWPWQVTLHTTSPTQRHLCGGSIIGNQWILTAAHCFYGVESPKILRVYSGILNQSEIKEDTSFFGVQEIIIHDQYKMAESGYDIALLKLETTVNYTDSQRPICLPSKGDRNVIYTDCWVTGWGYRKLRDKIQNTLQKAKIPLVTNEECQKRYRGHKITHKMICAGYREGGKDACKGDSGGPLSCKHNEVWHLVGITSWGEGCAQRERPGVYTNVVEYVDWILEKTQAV
# Protocol: as §1, §2
# [7] = target: T5, F VII (Homo sapiens, UniProt P08709); experiment: Coagulation factor assay (Biggs): Factor VII; format: biochemical; details: for inhibition of coagulation factor VII: in vitro; for F VII (%): U.S.P. grade, control 73
# T5 construct: from tissue; host or cells: human plasma
# T5 sequence (P08709 61-466): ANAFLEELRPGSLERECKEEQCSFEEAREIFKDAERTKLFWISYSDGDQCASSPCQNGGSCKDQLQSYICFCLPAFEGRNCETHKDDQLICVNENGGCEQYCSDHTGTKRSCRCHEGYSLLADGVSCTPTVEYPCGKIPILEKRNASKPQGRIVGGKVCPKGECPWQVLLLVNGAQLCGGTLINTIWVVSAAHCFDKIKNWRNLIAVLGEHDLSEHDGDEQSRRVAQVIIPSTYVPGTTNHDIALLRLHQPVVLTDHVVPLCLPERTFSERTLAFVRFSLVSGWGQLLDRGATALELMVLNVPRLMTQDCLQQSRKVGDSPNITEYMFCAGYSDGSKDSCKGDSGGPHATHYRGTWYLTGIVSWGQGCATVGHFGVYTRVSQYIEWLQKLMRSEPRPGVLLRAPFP
# Protocol: as §1, §2
# [8] = system: human plasma; format: biochemical; remark: listed apart in the source
# [9] = system: thrombus formation in the jugular vein; experiment: I 125 fibrinogen technique, damaged jugular vein (venous thrombosis), continuous infusion; format: in vivo, rabbits; details: for radioactivity (I 125 fibrinogen) in damaged jugular vein of saline control rabbit relative to treated rabbit / thrombus formation in the jugular vein (conclusion in words): continuous infusion for five hours; for mortality of infused rabbits: continuous infusion
# Protocol: The anti venous thrombotic effect of sodium bisulfite is evaluated in rabbits by using I ^125 fibrinogen technique as described in an article in "Archives of Surgery" Vol. 104, pg. 152 (1972).
# The rabbit was continuously infused with aqueous sodium bisulfite solution at the rate of […]. (5.154 gram per hour) (animal body weight 2.3 kg) for a time of five hours. After 5 hours, the animal was sacrificed and the radioactive fibrinogen accumulated in the damaged jugular vein was determined. The radioactivity on the contra-lateral (undamaged) jugular vein was also determined to serve as a control. Concurrently, another rabbit had experienced the same procedure but received only a standard sodium chloride solution as a control. The rabbit from the normal saline solution has seven times as much radioactivity as his counterpart infused with sodium bisulfite.
# Two jugular veins on a normal, healthy rabbit are exposed and one of the veins is systematically damaged by clamping in two longitudinally spaced places. The rabbit is then continuously infused with aqueous sodium formaldehyde bisulfite at the rate of […] (5.154 gram per hour) (animal body weight 2.3 kg). The rabbit is then injected with fibrinogen labeled with I^125. After 5 hours, the damaged jugular vein is evaluated for radioacive count with a Geiger counter.
# This iodine 125 evaluation technique is described by Kakkar in Archieves of Surgery, Vol. 104, pg. 152 (1972) and by Kelton, J.G. et al, Journal of Clinical Investigation, Vol. 62, pgs. 892-895, (1978). […] Other rabbits, similarly evaluated, died, apparently because of overdose by the infustion technique.
molecule,measurement,setting,value
"CCN(CC)CC.O=S(O)O [TRIETHYL AMINE BISULFITE, triethyl amine bisulfite]",MEAN LSD (PTT),[1],73.1 ± 8.3 s
same,PTT (effect in words),[1],significantly prolong
same,PTT(Sec) […]. 1,[1],24.7 s
same,PTT(Sec) […]. 2,[1],86.3 s
same,PTT(Sec) […]. 3,[1],64.2 s
same,PTT(Sec) […]. 4,[1],71.2 s
same,PTT(Sec) […].5,[1],68.9 s
same,inhibition of coagulation factor IX,[2],active
same,Factor IX (%),[2],14%
same,inhibition of coagulation factor XII,[3],active
same,PT and PTT (effect in words),[4],significantly prolong
same,inhibition of coagulation factor X,[5],active
same,inhibition of coagulation factor XI,[6],active
same,inhibition of coagulation factor VII,[7],active
same,MEAN LSD (PT),[8],21.3 ± 3.0 s
same,PT (effect in words),[8],significantly prolong
same,PT(Sec) […]. 1,[8],23.3 s
same,PT(Sec) […]. 2,[8],25.3 s
same,PT(Sec) […]. 3,[8],18.5 s
same,PT(Sec) […]. 4,[8],18.9 s
same,PT(Sec) […].5,[8],20.4 s
same,radioactivity (I 125 fibrinogen) in damaged jugular vein of saline control rabbit relative to treated rabbit,[9],seven times
same,thrombus formation in the jugular vein (conclusion in words),[9],definite positive antithrombotic effect
C[N+](C)(C)C [Tetramethyl-ammonium bisulfite],PTT (effect in words),"[1]; in vitro, 0.5 mg/ml",significantly prolong
same,inhibition of coagulation factor IX,[2],active
same,Factor IX (%),[2],12.5%
same,inhibition of coagulation factor XII,[3],active
same,PT and PTT (effect in words),[4],significantly prolong
same,inhibition of coagulation factor X,[5],active
same,inhibition of coagulation factor XI,[6],active
same,inhibition of coagulation factor VII,[7],active
same,PT sec.,[8],21.7 s
same,PT (effect in words),"[8]; in vitro, 0.5 mg/ml",significantly prolong
same,mortality of infused rabbits,[9],death of the rabbit
Sodium bisulfite,PTT(seconds) Exp. 1 A,[1],128.2 s
same,PTT,"[1]; 0.01 mg/ml, U.S.P. grade, control 12.20",12.33 s
same,PTT,"[1]; 0.05 mg/ml, U.S.P. grade, control 12.20",12.43 s
same,PTT,"[1]; 0.1 mg/ml, U.S.P. grade, control 12.20",12.85 s
same,PTT,"[1]; 0.5 mg/ml, U.S.P. grade, control 12.20",15.43 s
same,PTT,"[1]; 0.5 mg/ml, two different days, control 42.6 / 42.10",120.35 s
same,PTT,"[1]; 1.0 mg/ml, U.S.P. grade, control 12.20",22.63 s
same,PTT,"[1]; 5.0 mg/ml, U.S.P. grade, control 12.20",>150 s
same,PTT(seconds) Exp. 2 A,"[1]; Active Agent 0.5/ml, test sequences A and B, control 50.5 (A), 44.5 (B)",162.6 s and 121.9 s
same,PTT,"[1]; coded agents 0.5mg/ml, […], control 43.38",114.80 s
same,PTT (effect in words),"[1]; in vitro, 0.5 mg/ml",significantly prolong
same,F IX (%),[2]; 0.01 mg/ml,60%
same,F IX (%),[2]; 0.05 mg/ml,52%
same,F IX (%),[2]; 0.1 mg/ml,56%
same,effect on Factor IX,[2]; 0.5 mg per ml,significant inhibitory effect
same,F IX (%),[2]; 0.5 mg/ml,4%
same,F IX (%),[2]; 1.0 mg/ml,3%
same,F IX (%),[2]; 5.0 mg/ml,<1%
same,F XII (%),[3]; 0.01 mg/ml,94%
same,F XII (%),[3]; 0.05 mg/ml,87%
same,F XII (%),[3]; 0.1 mg/ml,79%
same,effect on Factor XII,[3]; 0.5 mg per ml,significant inhibitory effect
same,F XII (%),[3]; 0.5 mg/ml,17%
same,F XII (%),[3]; 1.0 mg/ml,3%
same,F XII (%),[3]; 5.0 mg/ml,<1%
same,PT and PTT (effect in words),[4],significantly prolong
same,blood coagulation factors,"[4]; rabbit plasma, compared with human plasma",not as sensitive
same,F X (%),[5]; 0.01 mg/ml,73%
same,F X (%),[5]; 0.05 mg/ml,68%
same,F X (%),[5]; 0.1 mg/ml,66%
same,effect on Factor X,[5]; 0.5 mg per ml,significant inhibitory effect
same,F X (%),[5]; 0.5 mg/ml,31%
same,F X (%),[5]; 1.0 mg/ml,11%
same,F X (%),[5]; 5.0 mg/ml,3%
same,F XI (%),[6]; 0.01 mg/ml,98%
same,F XI (%),[6]; 0.05 mg/ml,81%
same,F XI (%),[6]; 0.1 mg/ml,58%
same,effect on Factor XI,[6]; 0.5 mg per ml,significant inhibitory effect
same,F XI (%),[6]; 0.5 mg/ml,27%
same,F XI (%),[6]; 1.0 mg/ml,4%
same,F XI (%),[6]; 5.0 mg/ml,<1%
same,F VII (%),[7]; 0.01 mg/ml,67%
same,F VII (%),[7]; 0.05 mg/ml,57%
same,F VII (%),[7]; 0.1 mg/ml,51%
same,effect on Factor VII,[7]; 0.5 mg per ml,significant inhibitory effect
same,F VII (%),[7]; 0.5 mg/ml,23%
same,F VII (%),[7]; 1.0 mg/ml,8%
same,F VII (%),[7]; 5.0 mg/ml,1%
same,PT,[8],22.42 s
same,PT(seconds) Exp. 1 A,[8],25.5 s and 22.1 s
same,PT(seconds) Exp. 2 A,[8],23.2 s
same,PT,"[8]; 0.01 mg/ml, U.S.P. grade, control 34.67",33.37 s
same,PT,"[8]; 0.05 mg/ml, U.S.P. grade, control 34.67",34.00 s
same,PT,"[8]; 0.1 mg/ml, U.S.P. grade, control 34.67",34.85 s
same,PT,"[8]; 0.5 mg/ml, U.S.P. grade, control 34.67",42.73 s
same,PT,"[8]; 1.0 mg/ml, U.S.P. grade, control 34.67",85.33 s
same,PT,"[8]; 5.0 mg/ml, U.S.P. grade, control 34.67",>150 s
same,PT,"[8]; coded agents 0.5mg/ml, […], control 12.92",23.06 s
same,PT (effect in words),"[8]; in vitro, 0.5 mg/ml",significantly prolong
same,mortality of infused rabbits,[9],died
same,radioactivity (I 125 fibrinogen) in damaged jugular vein of saline control rabbit relative to treated rabbit,[9],seven times
same,thrombus formation in the jugular vein (conclusion in words),[9],definite positive effect of decreasing thrombus formation

# — EP0043274A2, “Antithrombotic treatment” (priority 1980, dated 1982)
